From US20090286693A1, “MICROARRAYS OF TAGGED COMBINATORIAL TRIAZINE LIBRARIES” (New York University, NYU Medical Center, Department of …, priority 2001, published 2009)
Where two headings read alike, the source gives them in different places.

Columns and labels:
human IgG [1] = system: T1, human IgG; test: Small-molecule microarray screening with Cy3-labeled human IgG; type: binding; settings: for microarray hit strength in words: based on spot intensity; for array signal (fluorescence units): spot intensity, background subtracted
T1 construct: array signal (fluorescence units); other: spot intensity, background subtracted; human IgG-Cy3; array signal class; other: symbol in brackets after the fluorescence units; microarray hit strength in words; other: based on spot intensity, human IgG-Cy3; fused on or other part: Cy3 dye coupled through the NHS ester (chemical label, no fusion)
From the text: Human IgG was fluorescently labeled with Cy3-NHS to allow for sensitive visualization of small molecule-IgG interactions on the array. […] The resulting scans were typical to that seen in FIG. 1. […] The spot intensities of these molecules are given in Table 1, with the background subtracted accordingly.
Preparation and Analysis of Small-Molecule Arrays. Preparation of Slides Activated with N-Hydroxysuccinimide Esters. 2 Briefly, 25 mm×75 mm slides (Fisher Scientific) were cleaned in piranha solution (sulfuric acid/hydrogen peroxide, 7:3). An amine functionality was incorporated onto the slides by silanization using a solution of 3% (aminopropyl)triethoxysilane in 2% water and 95% ethanol. After 1-2 h of soaking, the slides were washed with ethanol and cured at 150° C. for at least 2 h. Subsequently, the amine slides were incubated in a solution of 180 mM succinic anhydride in DMF for 30 min thereafter were transferred to a boiling water bath for 2 min. The slides were washed again in ethanol and dried under a stream of nitrogen. The carboxylic acid moieties now created on the slide surface were activated with a solution of 100 mM of TBTU (O-(benzotriazol-1-yl)-N,N,N,N-tetramethyluronium tetrafluoroborate), 200 mM DIEA, and 100 mM N-hydroxysuccinimide in DMF, thus generating the NHS-derivatized slides.
Microarray Printing. By individually weighing the solid compounds, triazine stock solutions were prepared to 2.5 mM in DMF, and 40-iL preparations were distributed across seven 384-well plates to give a total of 2688 distinct and pure compounds. Slides were spotted on an ESI SMA arrayer (Ontario, Canada) with the printhead installed with eight ArrayIt Chipmaker 7 Microspotting pins (Telechem, U.S.A.). Printing was performed in duplicate, and the pins were washed and sonicated in ethanol between samples. A repotting blotting process was also performed on plain slides to ensure spot uniformity. An additional solution of 0.2 mM Cy3-NH2 11 reference was spotted at the ends of the grids using a final eighth plate.
After spotting, the slides were allowed to sit for at least 12 h in situ and then were quenched by washing in an 1% ethanolamine (in DMF) bath for 2 h. After rinsing with Journal of Combinatorial Chemistry Discovery of Small-Molecule Ligands of Human IgG E ethanol and drying, the arrayed slides were stored in a desiccator at 4° C. The slides were stable for extended periods and, when required, were simply brought to room temperature.
Protein Screening with Labeled Human IgG. Proteins were tagged with Cy3-NHS by incubating 5 iL of 20 mM Cy3-NHS (Amersham Biosciences, U.K.) with 200 ig of human IgG (Calbiochem, U.S.A.) in a sodium bicarbonate buffer at pH 8. After 1 h of incubation, the labeled protein was separated from the free dye by a NAP-5 Sephadex G-50 column (Amersham Biosciences, U.K.). Before incubation with the labeled protein, the slides were preblocked to remove any nonspecific binding by soaking in 1% BSA in PBS for 1 h. After a brief rinsing with water, the slides were incubated with the labeled IgG.
A 1000-fold dilution of the above protein preparation was used as the incubation solution in a PBS buffer containing 1% BSA with the small-molecule arrays using the cover slip method for 30 min in a humid incubation chamber. Excess IgG was then removed by washing with distilled water. The background was further reduced using repeated washes with PBST.
Slide Scanning and Analysis. Slides were scanned on an ArrayWoRx scanner (Applied Precision, U.S.A.). Excel sheets were prepared to assign various compounds to specific numberings that could be readily tallied with reference numbers generated by the program. The ArrayWoRx software allows generation of reference files in which the spotting arrangement and the program overlay the spots on the results obtained, allowing compounds to be assigned in a rational fashion to every position. […]

human IgG [2] = molecular target: T2, human IgG; test: SPR (Biacore X) competitive binding with protein A on CM-5 chip immobilized with human IgG, dissociation constants
T2 construct: Kd/M; other: SPR, small molecule premixed with protein A, IgG immobilized; averaged dissociation constant; other: protein A with IgG alone
Protocol: Dissociation constants were determined for each of the compounds selected using SPR on a Biacore X system with BiaEvaluation software. Competitive binding experiments were performed with differentially proportioned mixtures of a small molecule and protein A on a CM-5 chip immobilized with human IgG (see Supporting Information) (Table 1), which also ensures the small molecule binding to the same Scheme 2. General Experimental Scheme a (a) Directed immobilization of triazine libraries to generate a high-density microarray. (B) Incubation with a fluorescently labeled protein. (C) Removal of the unbound protein through washing. (D) Detection with instantaneous deconvolution of positive hits. (E) Assessing efficacy of hits using SPR. An averaged dissociation constant of 1.25×10−9 M was obtained for protein A with IgG alone. Further assessments made by passing 2.5 iM of a small molecule against the IgG surface were also performed to give measurable association levels that correlate with binding affinities (Table 1). Immobilizing the small molecules and applying IgG in the solution phase obtained equivalent binding measurements; however, by employing the competitive binding method described, a single chip surface may be used for screening against multiple potential small-molecule ligands, economizing the process. A φ2 value of <10 was obtained for all Kd measurements, denoting good statistical validity of the results obtained.
Surface Plasmon Resonance (SPR) Determination of Dissociation Constants. Maintenance. SPR measurements were made on a Biacore X system (Biacore AB, Uppsala, Sweden). Various maintenance steps were performed to ensure that the instrument was kept in good working conditions. The integrated flow cell was washed, sanitized, and maintained using standard cleansing reagents on a weekly basis. Calibration checks were performed quarterly to ensure that the signal was of good quality, and the instrument was kept separate from other equipments to prevent interference. When not in use, the system was docked with a spare chip and flushed with water at a low flow rate of 5 iL/min to prevent clogging. The system was primed at least twice before use or for the purpose of initiating a new buffer type. A desorb process was performed every 2 days during periods of active use to remove proteins or other contaminating compounds that may have accumulated within the flow cell.
Procedures. Various approaches were conceived to assess the Kd values of the interactions. One successful method immobilized the small molecule on the CM-5 sensor chips and ran them through varying concentrations of IgG. […] We conceived that it would be easier to immobilize IgG on the surface and apply differing proportioned mixtures of the “hit” small molecule and protein A (Amersham Biosciences, U.K.). […]

[3] = system: other fluorescently labeled proteins (unrelated to human IgG); test: Control microarray screening with unrelated fluorescently labeled proteins; settings: same slide screened with other fluorescently labeled proteins; no positive binding
[4] = SPR, small molecule premixed with protein A, IgG immobilized, read-out: Kd/M

| Molecule | microarray hit strength in words (human IgG [1]) | array signal (fluorescence units) (human IgG [1]) | Kd (human IgG [2]; [4]) [µM] | specificity of binding toward human IgG [3] | Kd (human IgG [2]; protein A with IgG alone, read-out: averaged dissociation constant) [µM] |
| --- | --- | --- | --- | --- | --- |
| NCCOCCOCCNC(=O)c1ccc(CNc2nc(NCC3CCCCC3)nc(NC3CC4CCC3C4)n2)cc1 (stereo not drawn) [AMD03] | strongest hits | 185 | 2.02 | highly specific | – |
| NCCOCCOCCNC(=O)c1ccc(CNc2nc(NCC3CCCCC3)nc(NC3CCC3)n2)cc1 [AMD10] | strongest hits | 179 | 4.35 | highly specific | – |
| COc1ccc(CNc2nc(Nc3ccc(CC(=O)NCCOCCOCCN)cc3)nc(N3CCCCC3)n2)cc1 [APF29] | negative | < 10 | 151 | – | – |
| protein A: staphylococcal protein A (Amersham Biosciences), high molecular weight IgG ligand used as SPR competitor [reference compound] | – | – | – | – | 0.00125 |
